According to patent US20020055528A1, “Artemisinin analogs having antimalarial, antiproliferative, and antitumor activities and chemoselective methods of making the same” (priority 1999, published 2002):

Tests used:
[1] = tested on: chloroquine-sensitive P. falciparum (NF54); test: Antimalarial screening, [3H]hypoxanthine incorporation; assay type: cell-based, Plasmodium falciparum; conditions: Plasmodium falciparum, NF54, chloroquine-sensitive P. falciparum (NF54); read-out: IC50
Method: Activity was determined by measuring the incorporation of [^3H]hypoxanthine, by the methods of Desjardins and Milhouse, with the following modifications, see […].; Haynes, […]. Antimicrob. Agents Chemother., 16: 710 (1979); Milhous, W. K.; Weatherly, […].; Antimicrob. Agents Chemother., 27: 525 (1985). […] Calbiochem #391338), 27 mM NaHCO3 (Gibco BRL # 11810-025), and 10% heat-inactivated human type O+serum (Interstate Blood Bank, Inc.), under 3% O2, 4% CO2, and 93% N2-Parasitemia was maintained at 0.05-3% and doubling time at approximately 15 hours by twice weekly change of medium and replenishment with fresh erythrocytes. […] Sigma-Aldrich #27,043-1). DMSO solutions were diluted 500-fold in medium, serially diluted in 0.2% DMSO in medium (to maintain constant solvent concentration), then 100 μL aliquots were pipetted into microtiter plate wells (Costar3595). […] Cells were harvested (Brandel MB-48R) onto GF-C glass filters (Brandel). The filters were washed five times with 3 mL water per sample spot, dried under a heat lamp, and counted (Beckman Model LS-6500) in scintillation cocktail (ICN Cytoscint). Decays per minute (dpm) values were downloaded and analyzed (Power Macintosh 7200/90; Microsoft Excel 5.0), to yield the mean and standard deviation at each drug concentration.

[2] = tested on: HCT-116; test: NCI 60 cell line screen (SRB), Colon Cancer; assay type: cell-based; conditions: PG=0
[3] = tested on: HT29; test: NCI 60 cell line screen (SRB), Colon Cancer; assay type: cell-based
[4] = tested on: KM12; test: NCI 60 cell line screen (SRB), Colon Cancer; assay type: cell-based
[5] = tested on: SK-MEL-28; test: NCI 60 cell line screen (SRB), Melanoma; assay type: cell-based
[6] = tested on: OVCAR-8; test: NCI 60 cell line screen (SRB), Ovarian Cancer; assay type: cell-based
[7] = tested on: ACHN; test: NCI 60 cell line screen (SRB), Renal Cancer; assay type: cell-based; conditions: PG=0
[8] = tested on: RXF 393; test: NCI 60 cell line screen (SRB), Renal Cancer; assay type: cell-based
[9] = tested on: 60 cell line panel; test: NCI 60 cell line screen (SRB), whole panel; assay type: cell-based; conditions: panel summary
Method: The screening assay is performed on 96-well microtitre plates. Relatively high initial inoculation densities are used, in order to permit measurement of “time-zero” values and to enhance the screen's ability to detect and provide some differentiation between antiproliferative and cytotoxic response parameters. […] The inoculated microtitre plates are pre-incubated for 24 hours at 37θC prior to drug additions. The five drug dilutions tested routinely range from 10^−4 to 10^−8 molar. Higher or lower concentration ranges may be selected on a nonroutine basis if appropriate solubility and/or prior biological information or other screening data so dictate. Duplicate wells are prepared for all concentrations, (concentration is often denoted by placing brackets around a number); “time-zero” and “no drug” controls are also provided for each test. The minimum amount of compound required for a one-time evaluation in the routine screen can be calculated from the knowledge that each test requires a total of approximately 40 ml (0.04 liter) of cell culture medium containing the highest desired drug concentration. Thus, the amount (grams) of sample required (assuming an upper test concentration limit of 10^−4 M) is: molecular weight of compound×[…]. After a 48 hour incubation (37θC) with the test compound, the cells are fixed in situ to the bottoms of the microtitre wells by addition of 50 ul of either 50% trichloroacetic acid (for adherent cell lines) or 80% trichloroacetic acid (for settled cell suspension lines), followed by incubation for 60 minutes at 4θC. The cellular protein in each well is assayed using a sulforhodamine B (SRB) stain procedure. Briefly, after discarding the supernatants, the microtitre plates are washed 5 times with deionized water and air-dried. One hundred microliters of SRB solution (0.4% w/v in 1% acetic acid) is added to each microtitre well and incubated for 10 minutes at room temperature. Unbound SRB is removed by washing 5 times with 1 % acetic acid. The plates are air-dried, the bound stain is solubilized with Tris buffer, and the optical densities read at 515 nm. SRB is a bright pink anionic dye which, in dilute acetic acid, binds electrostatically to the basic amino acids of TCA-fixed cells. Cryopreserved master stocks of all the lines are maintained, and cultures used for screening are replaced from the master stock after no more than twenty passages in the screening laboratory. The cell line panel consists of 60 lines, organized into nine, disease-related subpanels including leukemia, non-small-cell lung cancer, colon, CNS, melanoma, ovarian, renal, prostate and breast cancers.
The response parameters G150 and LC50 are interpolated values representing the concentrations at which the percentage growth (PG) is +50 and −50, respectively:
GI50 is the concentration for which the PG=+50. At this value the increase from time tzero, in the number or mass of cells in the test well is only 50% as much as the corresponding increase in the control well during this period of the experiment, see Table II. A drug effect of this intensity is interpreted as primary growth inhibition.
TGI is the concentration for which PG=0. At this value the number or mass of cells in the well at the end of the experiment equals the number or mass of cells in the well at time tzero, see Table III. A drug effect of this intensity is regarded as cytostasis.
LC50 is the concentration for which the PG=−50. At this value, the number or mass of cells in the test well at the end of the experiment is half that at time tzero, see Table IV. This is interpreted as cytotoxicity.

[10] = tested on: P. berghei; conditions: P. berghei-infected mice; parasitemia 90 percent suppressed; cited from earlier work
[11] = cited from earlier work

For `C[C@@H]1CC[C@H]2[C@@H](C)C(=O)O[C@@H]3O[C@]4(C)CC[C@@H]1[C@]32OO4` [Artemisinin, artemisinin], the IC50 [1] was 0.01 µM, the Log10TGI [2] was greater than −4.00 log10M and the Log10TGI ([3]; PG=0) was greater than −4.00 log10M. For the same compound, the Log10GI50 ([3]; PG=+50) was greater than −4.00 log10M, the Log10GI50 ([3]; Table IV (LC50, PG=−50)) was greater than −4.00 log10M and the Log10TGI ([4]; PG=0) was greater than −4.00 log10M. It also gave a Log10GI50 ([4]; PG=+50) greater than −4.00 log10M, a Log10GI50 ([4]; Table IV (LC50, PG=−50)) greater than −4.00 log10M and a Log10TGI ([5]; PG=0) greater than −4.00 log10M. The Log10GI50 ([5]; PG=+50) was greater than −4.00 log10M, the Log10GI50 ([5]; Table IV (LC50, PG=−50)) was greater than −4.00 log10M and the Log10TGI ([6]; PG=0) was greater than −4.00 log10M. It also gave a Log10GI50 ([6]; PG=+50) greater than −4.00 log10M, a Log10GI50 ([6]; Table IV (LC50, PG=−50)) greater than −4.00 log10M and a Log10TGI [7] greater than −4.00 log10M. It also gave a Log10TGI ([8]; PG=0) greater than −4.00 log10M, a Log10GI50 ([8]; PG=+50) of −4.08 log10M and a Log10GI50 ([8]; Table IV (LC50, PG=−50)) greater than −4.00 log10M. The “Delta of Log10GI50 (Table IV)” value ([9]; Table IV (LC50)) was −4.00, the “Range of Log10GI50 (Table IV)” value ([9]; Table IV (LC50)) was 0.00 and the “Delta of Log10GI50” value [9] was −4.07. The “Delta of Log10TGI” value [9] was −4.00, the “Range of Log10GI50” value [9] was 0.73 and the “Range of Log10TGI” value [9] was 0.06. The SD90 [10] was 6.20 mg/kg and the “solubility in water in words” value [11] was “insolubility in water”.
